Data set [1] relates to HepG2 human hepatocellular carcinoma cell line. Kind of data set: Cytotoxicity against HepG2. The following applies: HepG2, 72 h; mean (±S.D.), n≥3; <5.00 = inactive at all concentrations tested. Format: cell-based.
In data set [2] the test system is P. falciparum asexual blood stages (PfABS), strain W2. Format: cell-based, Plasmodium falciparum. The following applies: for Selectivity Index: PfABS versus HepG2 cytotoxicity; for EC50: Plasmodium falciparum, W2, read-out: PfABS pEC50 (±S.D.) (converted).
The nature of data set [3]: Cytotoxicity against HepG2. The following applies: human, HepG2 cells. Type of data set: cell-based, human.

Each structure is given as a SMILES string.

Regarding `CC1CCC2C(C)C(CCCO)OC3OC4(C)CCC1C32OO4` (centres unmarked) [Compound 6a], in data set [1], the “Cytotoxicity pCC50 (±S.D.)” value is listed as < 5.00 (0.00). The “Selectivity Index” value in data set [2] is above 891.

As a reminder, the CC50 is the concentration giving 50% cytotoxicity. Low values mean harm at low concentration, high ones better tolerance by the cells. In turn, `C[C@@H]1CC[C@H]2[C@@H](C)C(=O)O[C@@H]3O[C@@]4(C)CC[C@@H]1[C@]32OO4` [artemisinin] yielded a half-maximal cytotoxic concentration (CC50) at 72 h in data set [3] above 10000 nM. In addition, in data set [2], the “Selectivity Index” value is above 2950 and the EC50 is 3.39 nM.

Regarding `COc1ccc(C[C@H](N)C(=O)N[C@H]2[C@@H](O)[C@H](n3cnc4c(N(C)C)ncnc43)O[C@@H]2CO)cc1` [puromycin], in data set [3], half-maximal cytotoxicity (CC50 at 72 h) was put at 407 nM. In data set [2], the “Selectivity Index” value turned out to be 8.71 and the EC50 is 46.8 nM.

As for `C[C@H]1[C@@H](O)O[C@@H]2O[C@@]3(C)CC[C@H]4[C@H](C)CC[C@@H]1[C@@]24OO3` [DHA, dihydroartemisinin], in data set [3], the CC50 at 72 h was above 8510 nM. Further, in data set [2], the “Selectivity Index” value is listed as above 9770 and the EC50 was 0.871 nM.

Consider `C[C@H]1[C@H](OC(=O)CCC(=O)O)O[C@@H]2O[C@@]3(C)CC[C@H]4[C@H](C)CC[C@@H]1[C@@]24OO3` [artesunate], for which the CC50 at 72 h in data set [3] is 3550 nM. In data set [2], the “Selectivity Index” value is 3160 and the EC50 was 1.12 nM.

These data come from publication PMC9247344 (ACS infectious diseases, 2021).
